According to patent publication US5436137A, “DNA sequence which encodes a peptide capable of promoting acrosome reaction” (Oregon Regional Primate Research Center, priority 1993, dated 1995):

Legend:
human sperm = assay: acrosome reaction in capacitated human sperm (acrosome specific monoclonal antibody, FITC fluorescence); assay type: cell-based; settings: bombesin at a concentration as low as 5 nM, added after overnight capacitation, FIG. 5
Method: (§1) To measure the effects of bombesin on the acrosome reaction, capacitation was conducted in the presence or absence of bombesin. After incubation, samples of sperm were removed to determine the percentage of sperm which had undergone the acrosome reaction as measured with an acrosome specific monoclonal antibody and FITC fluorescence [see Wolf, D. P. Am. J. Reprod. Immunol. 20:106-113 (1989), which is hereby incorporated by reference].
For human sperm, capacitation was achieved by overnight incubation of sperm in balanced salt and 0.3% bovine serum albumin, after which bombesin was added to induce the acrosome reaction.

monkey sperm = assay: acrosome reaction in capacitated monkey sperm (acrosome specific monoclonal antibody, FITC fluorescence); assay type: cell-based; settings: bombesin at a concentration as low as 5 nM, present during 60 minutes capacitation, FIG. 5
Method: For monkeys, sperm was collected, washed twice in balanced salts, resuspended in lactate/bicarbonate and dibutyryl cAMP, and then incubated for 60 minutes. […] See Wolf, D. P. et al. Mol. Reprod. Dev. 27:261-280 (1990); Lanzendorf, S. E. et al. Mol. Reprod. Dev. 25:61-66 (1990); and Wolf D. P. et al. Biol. Reprod. 41:335-346 (1989). All of these three publications are hereby incorporated by reference.
as §1

With `CSCC[C@H](NC(=O)[C@H](CC(C)C)NC(=O)[C@H](Cc1cnc[nH]1)NC(=O)CNC(=O)[C@@H](NC(=O)[C@H](C)NC(=O)[C@H](Cc1c[nH]c2ccccc12)NC(=O)[C@H](CCC(N)=O)NC(=O)[C@H](CC(N)=O)NC(=O)CNC(=O)[C@H](CC(C)C)NC(=O)[C@H](CCCN=C(N)N)NC(=O)[C@H](CCC(N)=O)NC(=O)[C@@H]1CCC(=O)N1)C(C)C)C(N)=O` [bombesin] the “increase in the acrosome reaction” value (human sperm) was 2 fold and the “increase in the acrosome reaction” value (monkey sperm) was 2 fold.
